Results from patent publication US12187773B2, “Modified GIP peptide analogues” (Antag Therapeutics ApS, priority 2018, dated 2025).
pIC50: −log10 of the molar value. *1 amine or outer side, *2 acyl side, *3 side chain or, on linkers, in order; H or OH if unused. Where a SMILES comes first, the peptide text is derived from it. Side-chain parts run from the residue outwards. [ ]: non-standard residue; d: D form. The star is where a group is joined. C18 diacid = O=C(O)CCCCCCCCCCCCCCCCC(=O)*; C16 diacid = O=C(O)CCCCCCCCCCCCCCC(=O)*; γGlu = O=C(O)[C@H](CCC(=O)[*:2])N[*:1]; pGlu = O=C1CC[C@@H](C(=O)O)N1; AEEA = NCCOCCOCC(=O)O

Legend:
Type in all cases: cell-based
human GIP receptor [1] = target: T1, human GIP receptor (Homo sapiens, UniProt P48546); experiment: cAMP agonism (CisBio cAMP Dynamic 2 HTRF assay); details: HEK293, read-out: cAMP agonism, % Efficacy, Table 1C, HEK-293 cells
T1 sequence (P48546 22-466): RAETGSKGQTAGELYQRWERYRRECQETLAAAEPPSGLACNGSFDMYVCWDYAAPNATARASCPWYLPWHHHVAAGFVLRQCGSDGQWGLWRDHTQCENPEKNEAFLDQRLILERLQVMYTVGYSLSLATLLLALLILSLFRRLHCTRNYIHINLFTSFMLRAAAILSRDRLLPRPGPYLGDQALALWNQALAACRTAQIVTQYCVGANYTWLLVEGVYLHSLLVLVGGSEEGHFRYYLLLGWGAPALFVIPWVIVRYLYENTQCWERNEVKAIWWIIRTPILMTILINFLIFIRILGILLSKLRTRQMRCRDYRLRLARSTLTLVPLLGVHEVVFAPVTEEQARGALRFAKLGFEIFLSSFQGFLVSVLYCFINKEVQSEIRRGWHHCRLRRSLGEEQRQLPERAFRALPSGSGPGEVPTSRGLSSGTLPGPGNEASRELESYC
Procedure: To test for agonistic properties at the GIP receptor, compounds were diluted and added to cells as described above and incubated for 30 min at 37° C. The resulting increase in intracellular cAMP was determined using the CisBio cAMP Dynamic 2 HTRF Assay Kit as described above.

glucagon receptor (GcgR) = target: T2, glucagon receptor (GcgR) (Homo sapiens, UniProt P47871); experiment: cAMP assay - selectivity, antagonism at glucagon receptor; details: Table 3A; COS-7 cells; agonist glucagon at 50-80% of maximal cAMP
T2 construct: expressed in transfected cells; host or cells: COS-7 (transient)
T2 sequence (P47871 26-477, species assumed): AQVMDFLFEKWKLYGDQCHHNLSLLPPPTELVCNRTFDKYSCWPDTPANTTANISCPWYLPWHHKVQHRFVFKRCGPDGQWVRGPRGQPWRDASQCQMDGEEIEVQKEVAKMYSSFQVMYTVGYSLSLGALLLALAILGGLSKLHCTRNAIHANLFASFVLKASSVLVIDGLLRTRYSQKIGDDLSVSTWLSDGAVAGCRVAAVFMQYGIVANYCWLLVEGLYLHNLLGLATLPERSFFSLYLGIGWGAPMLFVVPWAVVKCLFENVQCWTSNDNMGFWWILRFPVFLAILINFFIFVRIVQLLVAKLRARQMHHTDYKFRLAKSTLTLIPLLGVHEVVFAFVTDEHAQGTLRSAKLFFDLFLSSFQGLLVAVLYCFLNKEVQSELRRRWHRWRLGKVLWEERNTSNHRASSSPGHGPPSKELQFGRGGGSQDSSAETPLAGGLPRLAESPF
Procedure: (§1) Transient transfected COS-7 cells expressing the either of the GLP1 receptor (GLP1R), GLP2 receptor (GLP2R), glucagon receptor (GcgR) or secretin receptor (SCTR) were seeded in white 96-well plates with a density of 3.5*10^4/well. The day after, the cells were washed twice with Hepes buffered saline (HBS) buffer and incubated with HBS and 1 mM 3-isobutyl-1-methylxanthine (IBMX) for 30 min at 37° C. To test for agonistic properties, ligands were added and incubated for 30 min at 37° C. In order to test for antagonistic properties, the cells were preincubated with the antagonists for 10 min prior to the addition the natural agonist for the expressed receptor (GLP1 for GLP1R expressing cells, GLP2 for GLP2R expressing cells, glucagon for the GcgR and secretin for the SCTR) and subsequent incubated for 20 additional min. […] The HitHunter™ cAMP XS assay (DiscoveRx) was carried out according to the manufacturer's instructions.

GLP2 receptor (GLP2R) = target: T3, GLP2 receptor (GLP2R) (Homo sapiens, UniProt O95838); experiment: cAMP assay - selectivity, antagonism at GLP2 receptor; details: Table 3B; COS-7 cells; agonist GLP2
T3 construct: expressed in transfected cells; host or cells: COS-7 (transient)
T3 sequence (O95838 1-553): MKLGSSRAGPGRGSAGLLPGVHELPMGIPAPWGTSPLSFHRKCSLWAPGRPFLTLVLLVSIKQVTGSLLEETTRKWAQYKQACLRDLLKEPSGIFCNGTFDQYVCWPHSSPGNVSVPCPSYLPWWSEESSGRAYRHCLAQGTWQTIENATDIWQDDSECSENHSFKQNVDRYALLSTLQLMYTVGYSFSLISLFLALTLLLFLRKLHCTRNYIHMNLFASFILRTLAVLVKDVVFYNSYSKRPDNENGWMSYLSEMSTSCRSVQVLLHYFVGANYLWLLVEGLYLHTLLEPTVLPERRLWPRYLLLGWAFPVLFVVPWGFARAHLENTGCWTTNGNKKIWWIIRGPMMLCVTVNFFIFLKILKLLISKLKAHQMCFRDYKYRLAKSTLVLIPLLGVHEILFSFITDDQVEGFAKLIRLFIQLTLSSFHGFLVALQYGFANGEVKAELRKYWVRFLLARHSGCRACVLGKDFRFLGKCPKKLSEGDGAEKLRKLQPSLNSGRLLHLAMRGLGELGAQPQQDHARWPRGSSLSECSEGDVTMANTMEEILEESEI
Procedure: as §1

secretin receptor (SCTR) = target: T4, secretin receptor (SCTR) (Homo sapiens, UniProt P47872); experiment: cAMP assay - selectivity, antagonism at secretin receptor; details: Table 3B; COS-7 cells; agonist secretin
T4 construct: expressed in transfected cells; host or cells: COS-7 (transient)
T4 sequence (P47872 23-440, species assumed): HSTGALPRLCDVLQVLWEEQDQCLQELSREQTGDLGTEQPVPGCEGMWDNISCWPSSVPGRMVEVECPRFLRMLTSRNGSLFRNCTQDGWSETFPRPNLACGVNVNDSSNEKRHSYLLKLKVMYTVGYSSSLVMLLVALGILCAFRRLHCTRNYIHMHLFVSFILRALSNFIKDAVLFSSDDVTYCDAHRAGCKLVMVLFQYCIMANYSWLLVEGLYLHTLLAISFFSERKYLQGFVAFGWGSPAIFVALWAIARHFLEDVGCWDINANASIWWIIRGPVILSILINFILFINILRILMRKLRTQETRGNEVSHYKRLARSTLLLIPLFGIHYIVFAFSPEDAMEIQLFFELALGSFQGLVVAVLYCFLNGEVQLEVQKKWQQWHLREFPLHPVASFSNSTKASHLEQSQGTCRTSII
Procedure: as §1

human GIP receptor [2] = target: T1, human GIP receptor; experiment: cAMP accumulation, antagonism (DiscoveRx HitHunter cAMP XS assay); design: host or cells: COS-7 (transient, calcium phosphate; pCMV-Script vector); details: for cAMP antagonism, % inhib / IC50: Table 1B; for cAMP antagonism, % inhib / GIPR, Antagonism, % inhib / IC50: DiscoveRx; for cAMP antagonism, % inhib / GIPR, Antagonism, % inhib: COS-7 cells; for cAMP antagonism, % inhib: % inhibition of Emax; for GIPR, Antagonism, % inhib: Table 3A/3B; for IC50: cAMP antagonism, nM (IC50), transiently transfected COS-7 cells; for pIC50: IC50-value (GIPR antagonism), Examples 1 and 2, values of Tables 1B and 2
Procedure, shortened: (§2)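 cAMP accumulation measured by HitHunter cAMP XS in COS-7 cells transiently expressing human GIP receptor, after 30 min in HBS with 1 mM IBMX at 37 °C. Antagonists preincubated 10 min before GIP giving 50-80% of maximum, then 20 min more; agonist mode used 30 min ligand exposure.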

human GIP receptor [3] = target: T1, human GIP receptor; experiment: cAMP accumulation, agonism (DiscoveRx HitHunter cAMP XS assay); design: host or cells: COS-7 (transient, calcium phosphate; pCMV-Script vector); details: Table 1B; DiscoveRx; COS-7 cells
Procedure, shortened: as §2

SMILES | Emax (human GIP receptor [1]) [%] | Glucagon R, Antagonism, nM (glucagon receptor (GcgR)) | GLP-2R, Antagonism (GLP2 receptor (GLP2R)) | Secretin R, Antagonism (secretin receptor (SCTR)) | cAMP antagonism, % inhib (human GIP receptor [2]) [%] | GIPR, Antagonism, % inhib (human GIP receptor [2]) [%] | IC50 (human GIP receptor [2]) [nM] | cAMP agonism, Emax (human GIP receptor [3]) | pIC50 (human GIP receptor [2])
CC[C@H](C)[C@H](NC(=O)[C@H](CO)NC(=O)[C@H](Cc1ccc(O)cc1)NC(=O)[C@H](CC(=O)O)NC(=O)[C@H](CO)NC(=O)[C@@H](NC(=O)[C@H](Cc1ccccc1)NC(=O)[C@@H](NC(=O)CNC(=O)[C@@H]1CCC(=O)N1)[C@@H](C)O)[C@@H](C)CC)C(=O)N[C@@H](C)C(=O)N[C@@H](CCSC)C(=O)N[C@@H](CC(=O)O)C(=O)N[C@@H](CCCNC(=N)N)C(=O)N[C@H](C(=O)N[C@@H](CCCCNC(=O)COCCOCCNC(=O)COCCOCCNC(=O)COCCOCCNC(=O)CC[C@H](NC(=O)CCCCCCCCCCCCCCCCC(=O)O)C(=O)O)C(=O)N[C@@H](CCC(N)=O)C(=O)N[C@@H](CCC(N)=O)C(=O)N[C@@H](CC(=O)O)C(=O)N[C@@H](Cc1ccccc1)C(=O)N[C@H](C(=O)N[C@@H](CC(N)=O)C(=O)N[C@@H](Cc1c[nH]c2ccccc12)C(=O)N[C@@H](CC(C)C)C(=O)N[C@@H](CC(C)C)C(=O)N[C@@H](C)C(=O)N[C@@H](CCC(N)=O)C(=O)N[C@@H](CCCNC(=N)N)C(N)=O)C(C)C)[C@@H](C)CC [AT382] ([pGlu]GTFISDYSIAMDRIK([AEEA-AEEA-AEEA-γGlu-C18 diacid])QQDFVNWLLAQR-NH2) | 0 | No antagonism | No antagonism | No antagonism | 100 | 100.0 | 2 | No Agonism | –
CC[C@H](C)[C@H](NC(=O)[C@H](CO)NC(=O)[C@H](Cc1ccc(O)cc1)NC(=O)[C@H](CC(=O)O)NC(=O)[C@H](CO)NC(=O)[C@@H](NC(=O)[C@H](Cc1ccccc1)NC(=O)[C@@H](NC(=O)CNC(=O)[C@@H](N)CO)[C@@H](C)O)[C@@H](C)CC)C(=O)N[C@@H](C)C(=O)N[C@@H](CCSC)C(=O)N[C@@H](CC(=O)O)C(=O)N[C@@H](CCCNC(=N)N)C(=O)N[C@H](C(=O)N[C@@H](CCCCNC(=O)COCCOCCNC(=O)COCCOCCNC(=O)COCCOCCNC(=O)CC[C@H](NC(=O)CCCCCCCCCCCCCCC(=O)O)C(=O)O)C(=O)N[C@@H](CCC(N)=O)C(=O)N[C@@H](CCC(N)=O)C(=O)N[C@@H](CC(=O)O)C(=O)N[C@@H](Cc1ccccc1)C(=O)N[C@H](C(=O)N[C@@H](CC(N)=O)C(=O)N[C@@H](Cc1c[nH]c2ccccc12)C(=O)N[C@@H](CC(C)C)C(=O)N[C@@H](CC(C)C)C(=O)N[C@@H](C)C(=O)N[C@@H](CCC(N)=O)C(=O)N[C@@H](CCCNC(=N)N)C(N)=O)C(C)C)[C@@H](C)CC [AT383] (H-SGTFISDYSIAMDRIK([AEEA-AEEA-AEEA-γGlu-C16 diacid])QQDFVNWLLAQR-NH2; N-terminus assumed) | 0 | No antagonism | No antagonism | No antagonism | 100 | 100.0 | 1 | No Agonism | –
CC[C@H](C)[C@H](NC(=O)[C@H](CO)NC(=O)[C@H](Cc1ccc(O)cc1)NC(=O)[C@H](CC(=O)O)NC(=O)[C@H](CO)NC(=O)[C@@H](NC(=O)[C@H](Cc1ccccc1)NC(=O)[C@@H](NC(=O)CNC(=O)[C@@H](N)CO)[C@@H](C)O)[C@@H](C)CC)C(=O)N[C@@H](C)C(=O)N[C@@H](CCSC)C(=O)N[C@@H](CC(=O)O)C(=O)N[C@@H](CCCNC(=N)N)C(=O)N[C@H](C(=O)N[C@@H](CCCCNC(=O)COCCOCCNC(=O)COCCOCCNC(=O)CC[C@H](NC(=O)CCCCCCCCCCCCCCCCC(=O)O)C(=O)O)C(=O)N[C@@H](CCC(N)=O)C(=O)N[C@@H](CCC(N)=O)C(=O)N[C@@H](CC(=O)O)C(=O)N[C@@H](Cc1ccccc1)C(=O)N[C@H](C(=O)N[C@@H](CC(N)=O)C(=O)N[C@@H](Cc1c[nH]c2ccccc12)C(=O)N[C@@H](CC(C)C)C(=O)N[C@@H](CC(C)C)C(=O)N[C@@H](C)C(=O)N[C@@H](CCC(N)=O)C(=O)N[C@@H](CCCNC(=N)N)C(N)=O)C(C)C)[C@@H](C)CC [AT384] (H-SGTFISDYSIAMDRIK([AEEA-AEEA-γGlu-C18 diacid])QQDFVNWLLAQR-NH2; N-terminus assumed) | 0 | No antagonism | No antagonism | No antagonism | 100 | 100.0 | 8 | No Agonism | 8.10
CC[C@H](C)[C@H](NC(=O)[C@H](CO)NC(=O)[C@H](Cc1ccc(O)cc1)NC(=O)[C@H](CC(=O)O)NC(=O)[C@H](CO)NC(=O)[C@@H](NC(=O)[C@H](Cc1ccccc1)NC(=O)[C@@H](NC(=O)CNC(=O)[C@@H](N)CO)[C@@H](C)O)[C@@H](C)CC)C(=O)N[C@@H](C)C(=O)N[C@@H](CCSC)C(=O)N[C@@H](CC(=O)O)C(=O)N[C@@H](CCCNC(=N)N)C(=O)N[C@H](C(=O)N[C@@H](CCCCNC(=O)COCCOCCNC(=O)COCCOCCNC(=O)COCCOCCNC(=O)CC[C@H](NC(=O)CCCCCCCCCCCCCCCCC(=O)O)C(=O)O)C(=O)N[C@@H](CCC(N)=O)C(=O)N[C@@H](CCC(N)=O)C(=O)N[C@@H](CC(=O)O)C(=O)N[C@@H](Cc1ccccc1)C(=O)N[C@H](C(=O)N[C@@H](CC(N)=O)C(=O)N[C@@H](Cc1c[nH]c2ccccc12)C(=O)N[C@@H](CC(C)C)C(=O)N[C@@H](CC(C)C)C(=O)N[C@@H](C)C(=O)N[C@@H](CCC(N)=O)C(=O)N[C@@H](CCCNC(=N)N)C(N)=O)C(C)C)[C@@H](C)CC [AT385] (H-SGTFISDYSIAMDRIK([AEEA-AEEA-AEEA-γGlu-C18 diacid])QQDFVNWLLAQR-NH2; N-terminus assumed) | 3 | No antagonism | No antagonism | No antagonism | 100 | 100.0 | 4 | No Agonism | 8.40
